This is an account of results in a melting point compilation (Tetko et al.; mined from patent text by program, amines drawn as free bases though some values may be those of a salt).

Some results are limits rather than exact numbers.

The melting point is the temperature of the solid-liquid transition. As for `N#Cc1ccc2cc(CBr)ccc2c1`, the melting point fell in the range of 134 to 137 °C.
Next, `CCOC(=O)Cc1cc2c(N)cccc2cn1`: 90 °C; `O=[N+]([O-])c1ccc2c(C3CCN(C[C@H](O)COc4cccc5[nH]ccc45)CC3)c[nH]c2c1`: 212 to 214 °C.
For the compound `Fc1cc(Cl)cnc1Cl`, the melting point lay within 38 to 39 °C.
Compound `CCOC(=O)C1=C(N)NC(N)=C(C(=O)OCC)C1c1ccccc1` displayed a melting point of 139 °C.
Next, `COc1ccc2c(c1)c(-c1cc3nccnc3[nH]1)cn2CC(=O)N1CCOCC1`: 263 to 267 °C; `CONC(=O)COc1c(-c2ccccc2)c(=O)[nH]c2cc(Cl)ccc12`: 205 to 207 °C.
`CCCn1nc(CC)c(C(=O)O)c1Cc1ccc(-c2ccccc2-c2nnn[nH]2)cc1` had a melting point of 229 °C.
Take `COc1cc(C=C(Cl)Cl)nc(N)n1`: the melting point fell in the range of 90 to 91 °C.
Consider `CCOC(=O)C1=C(C)NC(=O)N(C(=O)OC(C)C)C1c1cccc(Cl)c1Cl` (stereo not drawn), for which the melting point is 139 to 140 °C.
Next, `COCCc1sc2ncnc(N)c2c1-c1ccc(NC(=O)Nc2ccccc2C)cc1`: 217 to 219 °C; `O=C(O)CC1CCC2(CC1)OCCO2`: 110 to 113 °C; `CC1(C)C=Cc2cc(S(=O)(=O)C[N+](=O)[O-])ccc2O1`: 81 °C.
The result for `COc1ccc2oc(Cc3c(Cl)cccc3Cl)c(CC#N)c2c1` reads 184 °C.
The result for `CC(C)(C)OC(=O)NC(Cc1ccccc1)C(O)C(Cc1ccccc1)NC(=O)[C@H](CC(N)=O)NC(=O)OCc1ccccc1` (stereo partly drawn) reads 216 to 217 °C; that for `COc1nc(NCCc2ccccc2)c2cc(C)sc2n1`, 138 °C.
For `O=C(O)c1ccccc1Oc1ccc(C(F)(F)F)cc1NS(=O)(=O)c1ccc(C(F)(F)F)cc1`, the melting point is 175 °C.
Next, `OC(COCc1ccc(Br)cc1)Cn1ccnc1` (stereo not drawn): 98 to 100 °C; `CN(C)CCCNC1c2ccccc2C(=O)N1c1ccc2ccc(Cl)nc2n1` (stereo not drawn): 143 °C.
`COCc1n[nH]c2c1c(=O)n(-c1ccccc1)c1ncccc21`: the melting point was in the range of 263 to 265 °C.
The result for `CN(C)CCc1c[nH]c2ccc(CCS(=O)(=O)Nc3ccccc3)cc12` reads 144 to 146 °C.
The result for `Fc1ccc(OCCCN2CCC(CNc3nc4ccccc4s3)CC2)c(OCc2ccccc2)c1` reads 130 °C.
Take `CCOC(=O)C1CCCCCCC(=O)C(=O)N1` (stereo not drawn): the melting point fell in the range of 129 to 130 °C.
Next, `CC12CC(O)C3c4cc(O)ccc4CCC3C1CCC2O` (stereo not drawn): 229 to 232 °C; `COc1ccc(CCN(C)CCCC(C#N)(C(=O)OC(C)C)c2ccc(OC)c(OC)c2)cc1OC` (stereo not drawn): 66 to 67 °C.
The result for `O=C1NC(=O)C(=Cc2cc(O)c(O)c([N+](=O)[O-])c2)N1` reads above 350 °C; that for `CC1(C)OCCN1C(=O)C=Cc1ccccc1`, 107 to 109 °C.
Compound `Cc1ccc(S(=O)(=O)OCC2COc3ccc([N+](=O)[O-])c(CC=O)c3O2)cc1` (stereo not drawn) registered a melting point of 116 to 120 °C.
The result for `COC(=O)C1Cc2c([nH]c3ccccc23)C(c2ccccc2Br)N1` (stereo not drawn) reads 105 to 106 °C.
On to `CCCn1cc(Cc2ccc(C(=O)NS(=O)(=O)c3ccccc3C)cc2OC)c2cc(C=CCC(=O)N(C)C)ccc21`, for which the melting point was in the range of 119 to 121 °C.
Compound `CCC1=NC2(O)c3cc(-c4ccc(C(F)(F)F)cc4)ccc3CC2S1` (stereo not drawn) registered a melting point of 145 °C.
The result for `C=CCOc1cc(F)nc(N)n1` reads 62 to 66 °C; that for `CC(C)(C)c1ccc(NC(=O)c2cccc3cc(Oc4cc(CO)ncn4)ccc23)cc1`, 202 to 203 °C; that for `COC(=O)CCC(C)C(=O)N[C@@H](C)C(=O)OCc1ccccc1` (stereo partly drawn), 97 to 99 °C.
Next, `O=c1c(-c2ccc(Cl)cc2)c2c(cn1CO)Sc1ccccc1N2`: above 300 °C.
`CC(C#N)CC(=O)c1cccc(Cl)c1` (stereo not drawn) showed a melting point of 72 to 75 °C.
In the case of `CCOP(=O)(OCC)c1cc2cc(S(N)(=O)=O)c(Cl)cc2[nH]c1=O`, the melting point lay within 288 to 290 °C.
Next, `CN(CCOc1ccc(CC(F)C(N)=O)cc1)c1nc2ccccc2o1` (stereo not drawn): 168 to 170 °C; `O=C(Nc1nc(C(Cl)(Cl)Cl)ns1)c1ccc(Cl)cc1Cl`: 136 °C.
The compound `Cc1ccc(-c2c(N)ncnc2OCCOc2ncc(Br)cn2)cc1` yielded a melting point of 178 to 180 °C.
On to `CC(C)Nc1nn(C)c(=O)c2cn(Cc3cccc4ccccc34)cc12`, for which the melting point was 221 to 222 °C.
The compound `CC(C)c1ccc(-c2cnc(-c3cccc(C(=O)O)c3)o2)cc1` yielded a melting point of 150 to 153 °C.
Next, `CCN(CC)C(=O)c1cc(-c2ccccc2)c2occc2c1`: 56 °C.
Next, `CC1(C)CC(=O)c2cc(C#N)c(N3CCCCC3)nc2C1`: 99 to 100 °C; `CCc1nn(-c2ccccc2)nc1/C(C#N)=C(\OC(=O)C(C)(C)C)c1c(C)c(C)nn1C`: 119 °C; `N#Cc1ccc(CN2C(=O)C3(COc4cc5c(cc43)OCO5)c3ccccc32)o1` (stereo not drawn): 167 to 169 °C.
Take `CCOC(=O)C=Cc1csc(-c2ccc(OC)c(C(C)(C)C)c2)c1`: the melting point lay within 119 to 120 °C.
Turning to `CCOC(=O)CC(=O)c1c(C(=O)OC)n(C)c2cc(Cl)ccc12`, the melting point is 250 to 252 °C.
Next, `COC(=O)c1ccc(SC)cn1`: 71 to 73 °C; `O=c1[nH]ccc2c1C(c1cccc(Cl)c1)N=C(c1ccccc1)N2` (stereo not drawn): 172 to 173 °C; `COC(=O)c1c(-c2ccc(C#N)cc2)cn(-c2ccc(Br)cc2)c1C(=O)OC`: 178 to 180 °C.
As to `CCS(=O)(=O)c1ccc(SC2SCC(O)C(O)C2O)cc1` (stereo not drawn), the melting point is 130 to 135 °C.
The result for `Cc1oc2c(C)c(C)c(NC(=O)c3ccc(F)cc3)c(C)c2c1-c1ccc(C(C)C)cc1` reads 242 to 245 °C; that for `O=C(O)Cc1ccc(Cc2nc3c(F)c(F)cc(F)c3s2)s1`, 132 to 133 °C; that for `CCC1(CC)C(=O)N(CC(O)Cc2cc(C(C)C)c(O)c(C(C)C)c2)C(=O)N(CC(O)Cc2cc(C(C)C)c(O)c(C(C)C)c2)C1=O` (stereo not drawn), 126 to 127 °C.
Next, `NC(=O)CON=C(C(=O)O)c1ccco1`: 143 to 145 °C.
`CCC(C)(CC)C(=O)O[C@H]1CCC=C2C=C[C@H](C)[C@H](CC[C@@H]3C[C@@H](O)CC(=O)O3)[C@H]21` displayed a melting point of 61 to 64 °C.
The result for `CCCCOCCOc1ccc(-c2ccc(N(C)CCC)c(C=CC(=O)O)c2)cc1` reads 95 to 97 °C.
In turn, `CC1(c2cccnc2F)OC(=S)N(Nc2ccccc2)C1=O` (stereo not drawn) had a melting point of 130 to 135 °C.
Next, `COc1c2c(c(OC)c(OC)c1OC)CC(CCCCCCCCOC(C)=O)C2`: 47 to 48 °C.
The compound `C#CC[C@H](c1nc2cc(Cl)ccc2c(=O)n1Nc1ccccc1)N(CCCNC(=O)OCc1ccccc1)C(=O)c1cccc(Cl)c1F` registered a melting point of 103 to 105 °C.
The result for `O=C(c1ccc2nonc2c1)N1C2CCCC1COC2` reads 128 to 130 °C; that for `COc1c(-c2ccc(O)c(O)c2)oc2cc(O)ccc2c1=O`, 281 °C.
